Results published in US20060079512A1, “Dibenzodiazepinone analogues, processes for their production and their use as pharmaceuticals” (Ecopia BioSciences, Inc., priority 2003, published 2006).
Read-outs that look alike come from different tables or passages of the source.

Assays:
[1] = test system: HT-29 (colorectal carcinoma); assay: In vitro cytotoxic activity (GI50), method (b), propidium iodide; format: cell-based; details: Homo sapiens, 96 hrs
Protocol: (§1) Row H was filled wih medium only (150 μL, negative control-medium).

[2] = test system: MDA-MB-231 (mammary gland adenocarcinoma); assay: as above; format: cell-based; details: Homo sapiens, 96 hrs
Protocol: as §1

[3] = test system: PC-3 (prostate adenocarcinoma); assay: as above; format: cell-based; details: 96 hrs
Protocol: as §1

SF268 (CNS) = assay: as above; format: cell-based; details: Homo sapiens, SF-268, 96 hrs
Protocol: as §1

[4] = test system: HT-29, SF-268, PC-3, MDA-MB-231; assay: Average GI50 over the four cell lines, method (b); format: cell-based; details: for GI50: values > 30 not considered
Protocol: as §1

[5] = test system: rat glioblastoma tumor (C6) xenografts; assay: Antitumor efficacy against rat glioblastoma tumor (C6) xenografts; format: in vivo, female swiss nude mice; details: intravenous, 75 mg/kg (qd5/2/qd5)
Description: Antitumor efficacy of Compound 2 against rat glioblastoma tumor (C6) xenografts in female swiss nude mice was accomplished as described above.

[6] = Pharmacokinetic profile, plasma concentrations by LC/MS/MS; format: in vivo, female Crl: CD1 mice; details: 30 mg/kg; for half-life: plasma; for AUC / Cmax: mice plasma; for Cmax: read-out: observed Cmax
Protocol: (§2) Compounds 1 and 2 were separately dissolved in ethanol (5%), Polysorbate 80 (15%), PEG 400 (5%) and dextrose (5%) at a final concentration of 6 mg/ml (for all parenteral administration routes). For oral administration, Compound 1 was solubilized in Cremophor® EU Ethanol (50%:50%) at a final concentration of 6 mg/ml. Prior to dosing, animals (female Crl: CD1 mice; 6 weeks of age, 22-24 g) were weighed, randomly selected and assigned to the different treatment groups. Compound 1 was administered by the intravenous (iv), subcutaneous (sc), intraperitoneal (ip), or oral (po) route to the assigned animals. Compound 2 was administered by the intravenous (iv), or intraperitoneal (ip) route to the assigned animals. The dosing volume of Compounds 1 and 2 was 5 mL per kg body weight. Animals were anesthetized with 5% isoflurane prior to bleeding. Blood was collected into microtainer tubes containing the anticoagulant K2EDTA by cardiac puncture from each of 4 animals per bleeding timepoint (2 min, 5 min, 15 min, 30 min, 1 h, 2 h, 4 h and 8 h). Following collection, the samples were centrifuged and the plasma obtained from each sample was recovered and stored frozen (at approximately −80° C.) pending analysis. At the 5 min and 30 min time points, the following organs were harvested from each animal: brain, lungs, skeletal muscle, fat tissue, kidneys, spleen, thymus and liver. Tissues were frozen (at approximately −80° C.) pending analysis. Samples were analysed by LC/MS/MS.
Plasma values of Compounds 1 and 2 falling below the limit of quantitation (LOQ) were set to zero. […] The following pharmacokinetic parameters were calculated: area under the plasma concentration versus time curve from time zero to the last measurable concentration time point (AUC0-t), area under the plasma concentration versus time curve extrapolated to infinity (AUCinf), maximum observed plasma concentration (Cmax), time of maximum plasma concentration (tmax), apparent first-order terminal elimination rate constant (kel), apparent first-order terminal elimination half-life will be calculated as 0.693/kel (t1/2). The systemic clearance (CL) of Compound 1 after intravenous administration was calculated using Dose/AUCinf. Pharmacokinetic parameters were calculated using Kinetica™ 4.1.1 (InnaPhase Corporation, Philadelphia, Pa.).

[7] = Tissue concentrations 30 min after administration; format: in vivo, female Crl: CD1 mice; details: 30 mg/kg
Protocol: as §2, with “At the 5 min and 30 min time points, the following organs were harvested from each animal: brain, lungs, skeletal muscle, fat tissue, kidneys, spleen, thymus and liver. Tissues were frozen (at approximately −80° C.) pending analysis.” left out, “LC/MS/MS. […]” for “LC/MS/MS.”

[8] = female, Crl: CD1, mouse, iv, read-out: AUC

Row | half-life ([6]; female, Crl: CD1, mouse, iv, I.V., read-out: half life t1/2 α) | half-life ([6]; female, Crl: CD1, mouse, iv, I.V., read-out: half life t1/2 β (converted)) | AUC ([6]; ip) | drug levels after oral administration ([6]; oral) | orally bioavailable level ([6]; oral) | tissue distribution ([7]; iv and ip dosing) | tissue levels ([7]; sc dosing, compared with ip) | SMILES | GI50 [1] | GI50 [2] | GI50 [3] | GI50 (SF268 (CNS)) | anticancer activity compared with Compound 1 ([4]; four cell lines) | GI50 [4] | Antitumor efficacy [5] | half-life ([6]; female, Crl: CD1, mouse, ip, IP administration, read-out: half life (t1/2)) | half-life ([6]; female, Crl: CD1, mouse, iv, IV administration, read-out: half life (t1/2)) | AUC ([6]; female, Crl: CD1, mouse, ip, read-out: AUC) | Cmax ([6]; female, Crl: CD1, mouse, ip) | AUC [6, 8] | Cmax ([6]; female, Crl: CD1, mouse, iv)
1 |  |  |  |  |  |  |  | CC(C)=CCC/C(C)=C/CC/C(C)=C/CN1C(=O)c2cccc(O)c2N(C)c2c(O)cc(O)cc21 [Compound 2, 10-farnesyl-4,6,8-trihydroxy-5-methyl-5,10-dihydro-dibenzo[b,e][1,4]diazepin-11-one] | 0.65 µM | 0.24 µM | 0.45 µM | 0.12 µM | better anticancer activity than Compound 1 | 0.36 µM | Significant efficacy | > 40 h | > 40 h | 58.8 µM·h | 5.8 µg/mL | 92.1 µM·h | 105 µg/mL
2 | 0.0767 h | 2.56 h | 9.5 ˜M·h | moderate but sustained drug levels | 5-8% | well distributed | significantly lower | CC(C)=CCC/C(C)=C/CC/C(C)=C/CN1C(=O)c2cccc(O)c2Nc2c(O)cc(O)cc21 [Compound 1, 10-farnesyl-4,6,8-trihydroxy-5,10-dihydrodibenzo[b,e][1,4]diazepin-11-one] | 9.33 µM | 3.18 µM | 3.76 µM | 1.55 µM |  | 4.45 µM |  |  |  |  | 2.25 µg/mL | 40.4 µM·h | 130 µg/mL
